Assay results published in publication PMC5815658 (Journal of Medicinal Chemistry, 2017).

What was measured:
[1] = molecular target: T1, pirin protein in SK-OV-3 human ovarian cancer cells (Homo sapiens, UniProt O00625); assay: Pirin depletion in SK-OV-3 cells (immunoblot / capillary electrophoresis immunoassay); type: cell-based; details: SK-OV-3 cells
T1 construct: endogenous in cells; host or cells: SK-OV-3
T1 sequence (O00625 1-290): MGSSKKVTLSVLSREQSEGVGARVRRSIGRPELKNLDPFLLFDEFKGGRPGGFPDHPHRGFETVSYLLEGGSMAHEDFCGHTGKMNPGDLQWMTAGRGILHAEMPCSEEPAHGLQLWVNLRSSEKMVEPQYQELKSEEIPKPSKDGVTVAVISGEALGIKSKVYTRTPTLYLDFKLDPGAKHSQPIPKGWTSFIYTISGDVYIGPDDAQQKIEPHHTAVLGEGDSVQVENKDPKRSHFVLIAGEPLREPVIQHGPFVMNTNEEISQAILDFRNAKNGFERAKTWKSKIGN
Procedure: in vivo in athymic mice to increase its tumorigenicity and reliability as a xenograft, and used within 10 passages of banked stocks.
Prior to use, the cells were analyzed by short tandem repeat (STR) profiling. Polymorphic STR loci were amplified using a polymerase chain reaction (PCR) primer set. The PCR product (each locus being labelled with a different fluorophore) was analyzed simultaneously with size standards using automated fluorescent detection. The number of repeats at 10 different loci (as recommended by the American Type Culture Collection, ATCC) was used to define the STR profile and this was cross-referenced with online databases to confirm authenticity. […]
the ATCC reference line (LGC Promochem, UK). […]
nested PCR protocol (Venor GeM kit, Minerva Biolabs, Germany). Cells were grown in DMEM/10 % FCS, 2 mM glutamine and nonessential amino acids in 5 % CO2.
SK-OV-3 cells were treated as for each experimental condition. Cells were harvested and lysed by scraping in urea lysis buffer (20 mM HEPES pH 8.0, 9 M urea, 1 mM sodium orthovanadate, 2.5 mM sodium pyrophosphate, 1 mM β-glycerophosphate). […]
of samples was determined using a bicinchoninic acid (BCA) protein assay kit (Thermo Fisher Scientific). Western blotting was carried out as previously described.10 Pirin and GAPDH antibodies were obtained from Abcam (ab157212) and Merck […]
Samples were treated, harvested and lysed as described above. A total of 5 μL of 0.2 mg/mL protein was loaded into plates and capillary western analysis was carried out according to the manufacturer’s instructions (ProteinSimple WES). The data was analyzed with the Compass software (ProteinSimple).
Sigma-Aldrich and Cell Signaling Technology, respectively.
10 Sharp SY, Boxall K, Rowlands M, Prodromou C, Roe SM, Maloney A, Powers M, Clarke PA, Box G, Sanderson S, Patterson L, Matthews TP, Cheung KM, Ball K, Hayes A, Raynaud F, Marais R, Pearl L, Eccles S, Aherne W, McDonald E, Workman P. In vitro biological characterization of a novel, synthetic diaryl pyrazole resorcinol class of heat shock protein 90 inhibitors.

[2] = PDP aqueous stability protocol; details: 37 °C
Procedure: PDP Aqueous Stability Protocol.
1) Using 1000 µL pipette, dispense 990 µL of pH 7.4 PBS buffer into a 1.5 mL micro centrifuge tube. Using 10 µL pipette,
add 10 µL of a freshly prepared 10 mM compound DMSO stock solution into the PBS buffer.
2) Mix for 5 seconds on vortex mixer to create 100 µM stock solution.
3) Agitate 100 µM stock solution (500 rpm, Bohdan Shaker) for 120 minutes at room temperature and the centrifuge for 15
4) Using a 1000 µL pipette approx. 700 µL was carefully decanted from the micro centrifuge tube and put into a vial to
5) To produce a t = 0 sample; using a 200 µL pipette, 50 µL of DMSO was dispensed into insert vial. Then, using a 200 µL
pipette, 200 µL from solution A was added into the insert vial and vortexed for 5 seconds to produce a sample for HPLC
6) The vial containing solution A was then warmed to 37 °C, with stirring, and aliquots were taken at regular time intervals
using the same procedure as described in step 5.
Assuming first-order decay:

[3] = molecular target: T2, pirin (Homo sapiens, UniProt O00625); assay: TMT MS2 whole proteome mass spectrometry in SK-OV-3 cells; type: cell-based; set-up: endogenous in cells; host or cells: SK-OV-3; details: 50 nM, 4 h
T2 sequence (O00625 1-290): T1 sequence (O00625 1-290)
Procedure: PDP 16 Quantified Mass Spectrometry in SK-OV-3 Cells
SK-OV-3 cells (enough to yield 50μg total protein per sample) treated with DMSO control or 50nM PDP 16 for 4 h. Cells were then harvested and lysed by scraping in urea lysis buffer (20mM HEPES pH 8.0, 9M urea, 1mM sodium orthovanadate, 2.5mM sodium pyrophosphate, 1mM β-glycerophosphate). Samples were sonicated and cent rifuged at 20,000 x g for 15 min and the protein extract (supernatant) collected . The experiment was performed in triplicates. The protein extract samples (supernatant) were then sent to www.proteomics.com, (Accessed September 7, 2017) for analysis.
Proteome Sciences’ proprietary TMT®MS2 workflow was applied for the analysis of total proteomic protein expression. In addition, Proteome Sciences’ bioinformatics tools were applied for data normalization, data integration and statistical analysis .
We identified 107318 unique peptides and 8 785 unique protein groups. This coverage of the proteome is within our normal range for peptide and protein identifications in cell line samples. […]
component analysis (PCA) plots explaining ~64% o f the variance of statistically significant features at peptide level. This observation was consistent with the result at protein level.
Using Proteome Sciences’ proprietary TMT®MS2 workflow on a cohort of SK-OV-3 cell line samples derived from ICR’s pirin degradation probe (n=3) and DMSO control (n=3). A reference sample was created from pooling the other samples.
PAGE confirming a good sample quality. Thus, all samples were processed following TMT®MS2 workflow.
All LC-MS/MS runs passed internal quality assessments, based on total ion counts (TICs) and number of peptide spectral matches (PSMs), considering the MS method to be used for data acquisition. Labelling efficiency was over 98.5% across all fractions.
TMT®MS2 identified 8785 unique protein groups from 107318 unique peptide sequences. This is within the typical range of protein and peptide identifications from cell line samples.
Total Peptide Spectral Match: 316215
Total Unique Peptide Sequences: 107318
Total Unique Protein IDs: 8785
Median Standard Deviation and Inter Quartile Range (IQR) were measured for each sample. […]
Protein solutions of SK -OV-3 cell line samples derived from ICR’s pirin degradation probe (n=3) and DMSO control (n=3) were provided in 9M urea 20 mM HEPES, 1 mM activated sodium orthovanadate, 2.5 mM sodium pyrophosphate, 1 mM b-glycerol-phosphate at pH 8.0. […] The protein concentration of the supernatant was determined by Bradford protein assay and each sample visualized by Coomassie stained (Imperial Stain, Pierce) SDS-PAGE 4-20% gradient gels (Criterion, Biorad) using 10 µg of each sample. […]

Pirin degradation ([1]; 50 nM, 2 h exposure, Figure 3A): near complete pirin degradation | Concentration-response shape with increasing concentration ([1]; 50 to 1500 nM, up to 24 h): clear hook effect | Lowest concentration with pirin degradation activity ([1]; 2 h exposure, Figure 3B): 0.5 nM | First-order decay rate constant ([2]; pH 7.4 PBS, n=2, Figure S1): 0.0038 min⁻¹ | Half-life (aqueous stability) ([2]; pH 7.4 phosphate buffer): ~3 h | half-life at 100 µM ([2]; phosphate buffer (PBS), pH 7.4, Half-life (aqueous stability), pH 7.4 phosphate buffer): 3 h | Proteins with statistically significant (p(adj) < 0.05) difference in expression ([3]; 8547 quantifiable proteins): only pirin | P.Value pirin (PIR, O00625), PDP vs Veh ([3]; TMT): 1.64E-08 | Reduction of pirin protein expression vs vehicle ([3]; TMT): 2.3 fold | logFC pirin (PIR, O00625), PDP vs Veh ([3]; TMT): -1.208
SMILES: O=C1CCC(N2C(=O)c3cccc(OCCOCCOCCN4CCN(Cc5ccc6cc(C(=O)Nc7cc(NC(=O)c8ccc9c(c8)OCCO9)ccc7Cl)ccc6n5)CC4)c3C2=O)C(=O)N1 (stereo not shown) [PDP 16, N-(2-Chloro-5-(2,3-dihydrobenzo[b][1,4]dioxine-6-carboxamido)phenyl)-2-((4-(2-(2-(2-((2-(2,6-dioxopiperidin-3-yl)-1,3-dioxoisoindolin-4-yl)oxy)ethoxy)ethoxy)ethyl)piperazin-1-yl)methyl)quinoline-6-carboxamide]
